According to the NIST ThermoML archive (doi:10.1016/j.jct.2016.12.031):
± gives the expanded uncertainty stated by the source.

Conditions: Crystal; visual observation

SMILES	Normal melting temperature
CN(C)c1ccc(C(=C2C=CC(=[N+](C)C)C=C2)c2ccccc2)cc1.CN(C)c1ccc(C(=C2C=CC(=[N+](C)C)C=C2)c2ccccc2)cc1.O=C(O)C(=O)O.O=C([O-])C(=O)O.O=C([O-])C(=O)O [Malachite green oxalate]	160.00 ± 1.1 °C
Cc1cc2nc3cc(C)c(N)cc3[n+](-c3ccccc3)c2cc1N.[Cl-] [Safranine O]	300.00 ± 1.1 °C
